Km data for one molecule are collected here from publication PMC7874188, “Mucoromycotina Fungi Possess the Ability to Utilize Plant Sucrose as a Carbon Source: Evidence From Gongronella sp. w5” (Frontiers in Microbiology, 2021).

The experiment has as its system T1, GspInv.
T1 construct: native, purified from w5 mycelia cytoplasm (High Q, Sephacryl S100); untagged
Kind of experiment: invertase hydrolysis kinetics, […] substrate. The experiment is classed as biochemical, Gongronella sp. w5. The conditions noted are these: pH 5.0 citrate-Na2HPO4, optimal temperature; constant printed only as "substrate affinity".

On to `OC[C@H]1O[C@@](CO)(O[C@H]2O[C@H](CO)[C@@H](O)[C@H](O)[C@H]2O)[C@@H](O)[C@@H]1O` [sucrose], for which the Michaelis-Menten constant (Km) came out at 3.1 mM.
